Here are results for 2 molecules from PMC9124820, “In vitro evaluation of fenfluramine and norfenfluramine as victims of drug interactions” (Pharmacology Research & Perspectives, 2022).

Data set [1] concerns the target T1, OAT3 (Homo sapiens, UniProt Q8TCC7).
T1 construct: host or cells: HEK293
T1 sequence (Q8TCC7 1-542): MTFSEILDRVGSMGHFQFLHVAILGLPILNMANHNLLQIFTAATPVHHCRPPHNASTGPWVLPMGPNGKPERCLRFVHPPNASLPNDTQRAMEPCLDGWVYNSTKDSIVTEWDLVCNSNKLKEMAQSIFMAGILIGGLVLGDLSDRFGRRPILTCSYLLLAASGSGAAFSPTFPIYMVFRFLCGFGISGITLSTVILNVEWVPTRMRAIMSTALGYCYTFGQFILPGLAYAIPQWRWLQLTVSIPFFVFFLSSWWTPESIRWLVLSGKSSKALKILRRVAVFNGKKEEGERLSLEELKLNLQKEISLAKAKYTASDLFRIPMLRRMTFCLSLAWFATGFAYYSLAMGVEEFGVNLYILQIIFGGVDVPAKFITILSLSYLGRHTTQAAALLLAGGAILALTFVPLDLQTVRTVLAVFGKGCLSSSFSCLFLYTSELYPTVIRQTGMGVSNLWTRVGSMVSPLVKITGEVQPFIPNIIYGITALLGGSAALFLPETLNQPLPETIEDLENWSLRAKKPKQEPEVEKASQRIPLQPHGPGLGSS
Put plainly: Transporter substrate determination, uptake in HEK293-OAT3 cells. The data set is classed as in vitro ADME. The settings on record: for Maximum Ratio (uptake in transporter‐expressing cells to empty‐vector control cells): HEK293‐OAT3, 0.1, 1, 10 µM, threshold ≥2‐fold; for substrate of the transporter: OAT3. The method, then: (§1) LC‐MS/MS analyses to assess metabolic stability and identify the transporter substrate were performed using an API 4000 QTRAP mass spectrometer (SCIEX, Framingham, MA) with electrospray ionization in positive mode. Chromatography was performed using an Atlantis dC18 analytical column (100 × 2.1 mm, 5 µm; Waters Corporation, Milford, MA). Mobile phases were 0.2% v/v formic acid in water and 0.2% v/v formic acid in acetonitrile. For metabolic stability experiments, FFA and metabolites were eluted at a flow rate of 0.6 mL/min, with a linear gradient of 20%−80% acetonitrile from 0.30−2.0 min. For transporter substrate experiments, the gradient was slightly modified to achieve suitable chromatography. The mass transitions monitored were 232.0 > 159.0 for FFA and 348.0 > 330.0 for 1ʹ‐OH‐midazolam‐d4 internal standard.
(§2) FFA and nFFA were evaluated as substrates of the transporters breast cancer resistance protein (BCRP), organic anion transporter (OAT)1, OAT3, organic cation transporter (OCT)2, MATE1, MATE2‐K, and P‐glycoprotein multidrug transporter (P‐gp; also known as MDR1 and ABCB1), according to published methods.[25], [26], [27], [28], [29] Madin‐Darby canine kidney (MDCKII)‐BCRP cells (Netherlands Cancer Institute, Amsterdam, Netherlands) or human embryonic kidney (HEK)293 cells transfected with other transporters (Sekisui Medical Co., Ltd., Tokyo, Japan) were used. Transporter‐transfected and control cells were incubated with FFA or nFFA (0.1, 1, or 10 μM), and the amount of FFA and nFFA accumulated in the cells was measured by LC‐MS/MS as described above. The accumulation of positive control substrates in the presence and absence of an inhibitor served as a positive control for transporter function. […] BCRP substrate determination was made by bi‐directional permeability across MDCKII‐BCRP and control cells cultured on 24‐well transwell plates. Incubation medium containing probe substrate was added. Ten minutes later, transepithelial electrical resistance (TEER) was recorded and cells were preincubated at 37 ± 2°C for 30−60 min before FFA or nFFA or positive control substrate with the solvent control or positive control inhibitor was added to the donor (apical) chamber. […] Samples containing FFA, nFFA, or probe substrate were mixed with internal standard and analyzed by LC‐MS/MS. […] An aliquot was added to 96‐well plate containing scintillation fluid that was analyzed by a MicroBeta^2 scintillation counter (Perkin Elmer, Waltham, MA). Protein concentration was determined by a bicinchoninic acid (BCA) protein assay according to the manufacturer’s protocol (Thermo Fisher Scientific, Waltham, MA). Non‐radiolabeled compounds were resuspended in a 50:50 v/v methanol:water solution containing internal standard and were analyzed by LC‐MS/MS. […]

Data set [2] addresses T2, MATE1 (Homo sapiens, UniProt Q96FL8).
T2 construct: host or cells: HEK293
T2 sequence (Q96FL8 1-570): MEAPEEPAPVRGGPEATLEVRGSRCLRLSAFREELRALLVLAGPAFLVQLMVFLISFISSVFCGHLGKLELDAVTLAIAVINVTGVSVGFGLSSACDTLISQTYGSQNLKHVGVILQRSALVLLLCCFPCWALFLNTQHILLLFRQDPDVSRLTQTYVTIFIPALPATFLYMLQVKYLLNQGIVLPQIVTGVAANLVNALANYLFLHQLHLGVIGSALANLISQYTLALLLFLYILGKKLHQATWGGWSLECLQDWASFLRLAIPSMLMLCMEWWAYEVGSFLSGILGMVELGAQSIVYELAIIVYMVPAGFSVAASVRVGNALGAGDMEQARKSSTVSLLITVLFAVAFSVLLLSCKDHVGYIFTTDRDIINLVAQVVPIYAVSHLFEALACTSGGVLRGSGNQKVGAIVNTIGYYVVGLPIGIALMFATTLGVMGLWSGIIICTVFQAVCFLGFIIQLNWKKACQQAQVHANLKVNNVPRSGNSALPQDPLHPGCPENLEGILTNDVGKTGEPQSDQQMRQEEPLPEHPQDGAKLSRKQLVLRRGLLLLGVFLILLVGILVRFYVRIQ
The experiment in a line: Transporter substrate determination, uptake in HEK293-MATE1 cells. The class given is in vitro ADME. The settings on record: for Maximum Ratio (uptake in transporter‐expressing cells to empty‐vector control cells): HEK293‐MATE1, 0.1, 1, 10 µM, threshold ≥2‐fold; for substrate of the transporter: MATE1. The protocol:
as §1, §2

For data set [3], the target named is P‐gp (Homo sapiens, UniProt P08183). The experiment in a line: Transporter substrate determination, efflux ratio across Caco-2 cells (P-gp). A general note: Passage across Caco-2 layers is used to estimate intestinal permeability.
Chain of P‐gp (P08183 whole entry): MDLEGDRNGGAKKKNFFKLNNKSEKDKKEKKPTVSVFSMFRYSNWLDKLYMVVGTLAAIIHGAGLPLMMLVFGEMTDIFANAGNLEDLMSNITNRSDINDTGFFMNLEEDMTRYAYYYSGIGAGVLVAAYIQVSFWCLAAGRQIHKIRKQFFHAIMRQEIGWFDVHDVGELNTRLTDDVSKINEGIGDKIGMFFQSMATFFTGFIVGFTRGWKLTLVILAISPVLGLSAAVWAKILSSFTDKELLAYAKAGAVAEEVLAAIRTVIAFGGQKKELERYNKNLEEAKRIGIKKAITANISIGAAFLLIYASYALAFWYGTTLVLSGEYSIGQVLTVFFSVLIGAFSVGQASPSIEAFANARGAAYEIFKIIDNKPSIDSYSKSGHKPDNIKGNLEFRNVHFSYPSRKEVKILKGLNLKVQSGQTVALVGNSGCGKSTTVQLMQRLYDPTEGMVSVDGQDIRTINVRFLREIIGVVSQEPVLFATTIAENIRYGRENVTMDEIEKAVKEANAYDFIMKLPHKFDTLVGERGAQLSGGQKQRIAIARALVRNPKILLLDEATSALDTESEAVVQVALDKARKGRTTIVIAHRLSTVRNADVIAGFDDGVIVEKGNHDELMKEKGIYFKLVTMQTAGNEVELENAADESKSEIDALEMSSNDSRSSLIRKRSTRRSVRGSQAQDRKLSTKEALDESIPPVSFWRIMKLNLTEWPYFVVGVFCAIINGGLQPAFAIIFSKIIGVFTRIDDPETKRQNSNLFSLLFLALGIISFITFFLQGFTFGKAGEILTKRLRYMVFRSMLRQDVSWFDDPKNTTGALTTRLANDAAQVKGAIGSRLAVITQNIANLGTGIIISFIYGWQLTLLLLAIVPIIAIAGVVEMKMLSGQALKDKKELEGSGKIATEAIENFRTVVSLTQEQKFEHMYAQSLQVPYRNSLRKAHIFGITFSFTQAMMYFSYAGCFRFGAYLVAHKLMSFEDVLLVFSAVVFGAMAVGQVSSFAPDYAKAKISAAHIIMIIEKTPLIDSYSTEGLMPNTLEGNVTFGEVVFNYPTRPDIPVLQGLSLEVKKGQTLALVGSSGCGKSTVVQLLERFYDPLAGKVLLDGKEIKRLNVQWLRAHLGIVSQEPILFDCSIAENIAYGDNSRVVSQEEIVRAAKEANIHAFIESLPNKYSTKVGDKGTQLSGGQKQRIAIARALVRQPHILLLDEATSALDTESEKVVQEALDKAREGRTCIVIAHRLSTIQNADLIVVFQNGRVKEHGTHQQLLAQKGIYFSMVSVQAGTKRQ

Turning to `CCNC(C)Cc1cccc(C(F)(F)F)c1` (racemic) [FFA, (RS)‐ethyl (α‐methyl‐3‐trifluoromethylphenethyl)amine], the “Maximum Ratio (uptake in transporter‐expressing cells to empty‐vector control cells)” value in data set [1] is recorded as 1.15; in data set [2], 1.10. The “substrate of the transporter” value in data set [1], in data set [2] and in data set [3] was “not substrates” in each case.

Take `CC(N)Cc1cccc(C(F)(F)F)c1.Cl` (stereo not shown) [nFFA, 1‐(3‐(trifluoromethyl)phenyl)propan‐2‐amine hydrochloride]: the “Maximum Ratio (uptake in transporter‐expressing cells to empty‐vector control cells)” value in data set [1] is given as 1.74; in data set [2] it was 1.00. Moreover, the “substrate of the transporter” value in data set [1], in data set [2] and in data set [3] was “not substrates” throughout.
